In ChEMBL document CHEMBL1201862, “PubChem BioAssay data set” (2004):
Calls of active or inactive are those of the source.

Legend:
HEK293 = experiment: cells; format: functional, cell-based; settings: Homo sapiens
[1] = target: T1, Nuclear receptor subfamily 0 group B member 1 (Homo sapiens, UniProt P51843); experiment: Luminescence-based cell-based high throughput dose response assay for inhibitors of the orphan nuclear receptor subfamily 0, group B, member 1 (DAX1; NR0B1). [Related pubchem assays (depositor defined):AID504766, AID504790]; format: functional
T1 sequence (P51843 whole entry): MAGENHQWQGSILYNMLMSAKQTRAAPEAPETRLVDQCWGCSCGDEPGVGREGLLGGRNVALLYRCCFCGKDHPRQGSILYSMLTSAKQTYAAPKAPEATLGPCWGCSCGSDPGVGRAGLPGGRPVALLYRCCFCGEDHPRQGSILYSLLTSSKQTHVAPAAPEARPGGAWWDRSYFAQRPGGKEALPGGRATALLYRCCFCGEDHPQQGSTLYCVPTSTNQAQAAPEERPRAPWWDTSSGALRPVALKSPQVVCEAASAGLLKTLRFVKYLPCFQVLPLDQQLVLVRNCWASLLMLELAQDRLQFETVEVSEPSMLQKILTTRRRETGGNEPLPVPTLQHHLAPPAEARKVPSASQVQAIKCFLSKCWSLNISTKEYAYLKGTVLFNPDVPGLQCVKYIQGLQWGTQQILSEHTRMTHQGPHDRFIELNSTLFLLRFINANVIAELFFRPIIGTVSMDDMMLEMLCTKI

Cytochrome P450 2D6 [2] = target: T2, Cytochrome P450 2D6 (Homo sapiens, UniProt P10635);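 further: CYP2D6 member of a cytochrome P450 panel assay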
T2 sequence (P10635 whole entry): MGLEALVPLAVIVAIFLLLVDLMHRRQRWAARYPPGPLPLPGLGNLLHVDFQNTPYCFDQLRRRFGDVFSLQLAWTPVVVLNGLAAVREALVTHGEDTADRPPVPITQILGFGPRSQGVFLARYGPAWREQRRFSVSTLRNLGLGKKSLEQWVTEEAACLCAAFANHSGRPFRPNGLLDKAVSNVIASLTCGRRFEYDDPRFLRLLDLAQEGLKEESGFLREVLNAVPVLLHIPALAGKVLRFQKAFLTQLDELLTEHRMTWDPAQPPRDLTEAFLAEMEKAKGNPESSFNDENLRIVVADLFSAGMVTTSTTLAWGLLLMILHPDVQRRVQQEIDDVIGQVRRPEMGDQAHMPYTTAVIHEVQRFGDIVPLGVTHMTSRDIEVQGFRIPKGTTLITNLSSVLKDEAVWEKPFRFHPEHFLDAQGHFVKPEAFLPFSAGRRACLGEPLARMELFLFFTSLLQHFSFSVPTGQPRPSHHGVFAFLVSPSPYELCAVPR

[3] = HeLa 4N DNA content increase, dose response, cell-based, IC50 (AID 1117351); format: functional
[4] = HeLa 2N DNA content increase, dose response, cell-based, IC50 (AID 1117349); format: functional
Cytochrome P450 1A2 = target: T3, Cytochrome P450 1A2 (Homo sapiens, UniProt P05177);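 further: PubChem cytochrome P450 panel assay, CYP1A2 panel member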
T3 sequence (P05177 whole entry): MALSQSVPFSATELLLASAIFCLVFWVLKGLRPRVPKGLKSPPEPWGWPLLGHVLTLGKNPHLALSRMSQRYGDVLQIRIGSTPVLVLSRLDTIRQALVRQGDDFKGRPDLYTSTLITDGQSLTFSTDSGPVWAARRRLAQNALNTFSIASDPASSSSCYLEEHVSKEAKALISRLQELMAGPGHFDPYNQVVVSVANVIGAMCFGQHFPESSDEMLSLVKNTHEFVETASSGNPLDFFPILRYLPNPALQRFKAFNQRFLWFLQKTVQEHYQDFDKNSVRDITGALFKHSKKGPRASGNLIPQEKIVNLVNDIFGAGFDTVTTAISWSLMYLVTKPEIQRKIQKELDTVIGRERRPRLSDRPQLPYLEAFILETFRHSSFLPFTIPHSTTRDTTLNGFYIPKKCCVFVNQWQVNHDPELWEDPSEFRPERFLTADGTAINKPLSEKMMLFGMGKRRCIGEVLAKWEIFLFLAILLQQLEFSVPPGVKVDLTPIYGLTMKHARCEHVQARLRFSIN

[5] = Concentration-dependent survival of SW480 colon cancer line, luminescence detection with CellTiter-Glo, half-maximal inhibitory concentration (AID 1117338); format: functional
[6] = SNU-C1 cell viability reduction, dose response, CellTiter-Glo luminescence (AID 1117323); format: functional, cell-based
[7] = HCT116 cell viability decrease, GSK3B pretreatment – CellTiter-Glo, IC50, dose response (AID 1117339); format: functional; settings: HCT-116
[8] = cytotoxicity toward HT-29 cells – cell-based, CellTiter-Glo luminescence, IC50, dose response (AID 1117330); format: functional
[9] = CellTiter-Glo luminescent dose response of DLD-1 viability loss (AID 1117352); format: functional
[10] = RKO cell viability reduction, dose response, CellTiter-Glo luminescence (AID 1117322); format: functional
[11] = cytotoxicity toward HCT116 cells – cell-based, CellTiter-Glo luminescence, IC50, dose response (AID 1117332); format: functional; settings: HCT-116
[12] = HEp-2 cell cytotoxicity, dose response, cytotoxicity control for RSV inhibitor project, HTS (AID 2410); format: functional; settings: human respiratory syncytial virus
HeLa = experiment: HeLa cell cytotoxicity, dose response, cytotoxicity control for MITF activator project, CellTiter-Glo luminescence, cherry-pick samples (AID 540259); format: functional, cell-based; settings: Homo sapiens
Keap1/Nrf2 = Keap1/Nrf2 (Homo sapiens, UniProt Q14145); experiment: Keap1-Nrf2 protein-protein interaction inhibitors, dose response, biochemical, fluorescence polarization, cherry-picked samples (AID 588683)
Chain of Keap1/Nrf2 (Q16236 whole entry, the tested form may be a part): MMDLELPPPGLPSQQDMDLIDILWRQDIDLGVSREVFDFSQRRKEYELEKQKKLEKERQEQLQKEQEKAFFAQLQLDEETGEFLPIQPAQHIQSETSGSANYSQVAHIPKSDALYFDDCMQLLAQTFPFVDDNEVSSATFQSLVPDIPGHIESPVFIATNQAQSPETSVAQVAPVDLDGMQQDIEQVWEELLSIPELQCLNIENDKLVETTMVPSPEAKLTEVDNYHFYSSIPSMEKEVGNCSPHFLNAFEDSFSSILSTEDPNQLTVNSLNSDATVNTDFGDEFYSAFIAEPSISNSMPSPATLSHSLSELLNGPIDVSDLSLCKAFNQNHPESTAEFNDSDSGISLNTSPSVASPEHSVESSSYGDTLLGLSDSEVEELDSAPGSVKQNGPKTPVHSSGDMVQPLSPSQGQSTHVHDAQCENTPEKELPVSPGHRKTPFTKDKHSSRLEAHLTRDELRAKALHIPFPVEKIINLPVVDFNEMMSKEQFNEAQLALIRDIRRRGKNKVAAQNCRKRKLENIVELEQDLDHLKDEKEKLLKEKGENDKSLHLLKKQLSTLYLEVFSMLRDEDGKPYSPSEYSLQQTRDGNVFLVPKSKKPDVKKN
Chain of Keap1/Nrf2 (Q14145 whole entry, the tested form may be a part): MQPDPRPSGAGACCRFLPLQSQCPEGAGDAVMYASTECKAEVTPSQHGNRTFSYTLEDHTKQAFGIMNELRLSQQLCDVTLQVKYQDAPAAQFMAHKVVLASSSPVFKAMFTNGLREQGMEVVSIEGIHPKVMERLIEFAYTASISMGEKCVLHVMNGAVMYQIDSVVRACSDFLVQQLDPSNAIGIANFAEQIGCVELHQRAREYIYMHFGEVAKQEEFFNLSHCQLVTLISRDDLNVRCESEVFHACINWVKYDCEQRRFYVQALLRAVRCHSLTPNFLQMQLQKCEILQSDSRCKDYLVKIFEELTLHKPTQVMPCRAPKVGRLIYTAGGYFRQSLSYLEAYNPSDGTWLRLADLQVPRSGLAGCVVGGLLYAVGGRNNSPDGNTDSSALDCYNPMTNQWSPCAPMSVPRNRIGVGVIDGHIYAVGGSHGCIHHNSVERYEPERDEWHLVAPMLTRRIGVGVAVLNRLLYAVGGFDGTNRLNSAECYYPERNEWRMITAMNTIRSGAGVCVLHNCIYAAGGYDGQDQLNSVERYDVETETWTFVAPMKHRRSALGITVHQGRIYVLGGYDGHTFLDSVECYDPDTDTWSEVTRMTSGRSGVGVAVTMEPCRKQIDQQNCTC

[13] = target: T4, RNA-binding protein pos-1 (Caenorhabditis elegans, UniProt G5EF15); experiment: inhibitors of POS-1/mex-3 RNA binding, dose response, biochemical, fluorescence polarization (AID 1964);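 further: purified POS-1 fused to maltose binding protein made in E. coli; potency of compounds blocking POS-1 binding to fluorescent RNA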
T4 sequence (G5EF15 whole entry): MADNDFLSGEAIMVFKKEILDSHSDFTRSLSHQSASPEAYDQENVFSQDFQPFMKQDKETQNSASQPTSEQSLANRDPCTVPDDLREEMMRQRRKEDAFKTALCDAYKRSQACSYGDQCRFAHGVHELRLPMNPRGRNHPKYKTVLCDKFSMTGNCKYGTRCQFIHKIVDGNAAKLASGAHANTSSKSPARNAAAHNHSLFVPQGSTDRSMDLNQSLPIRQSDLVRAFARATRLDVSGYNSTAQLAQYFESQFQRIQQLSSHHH

[14] = target: T5, Zinc finger protein mex-5 (Caenorhabditis elegans, UniProt Q9XUB2); experiment: MEX-5/TCR-2 RNA interaction inhibitors, dose response, biochemical, C. elegans, fluorescence polarization (AID 1960)
T5 sequence (Q9XUB2 whole entry): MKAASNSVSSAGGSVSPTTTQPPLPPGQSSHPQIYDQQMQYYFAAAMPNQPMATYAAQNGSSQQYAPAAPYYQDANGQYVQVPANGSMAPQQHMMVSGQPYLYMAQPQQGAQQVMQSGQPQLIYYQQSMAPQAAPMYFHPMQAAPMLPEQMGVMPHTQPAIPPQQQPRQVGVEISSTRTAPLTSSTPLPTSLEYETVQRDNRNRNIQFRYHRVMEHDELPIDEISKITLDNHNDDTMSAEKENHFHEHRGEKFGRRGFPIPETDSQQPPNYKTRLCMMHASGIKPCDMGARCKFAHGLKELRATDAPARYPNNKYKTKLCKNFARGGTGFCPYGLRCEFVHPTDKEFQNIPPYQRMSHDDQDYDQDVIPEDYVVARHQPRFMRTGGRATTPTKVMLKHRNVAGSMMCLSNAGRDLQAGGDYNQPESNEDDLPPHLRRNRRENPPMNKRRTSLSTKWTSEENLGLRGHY

[15] = Luminescence Cell-Based Dose Confirmation to Identify Activators of 5'UTR Stem-Loop Driven Alpha-Synuclein mRNA Translation in H4 Neuroglioblastoma Cells. [Related pubchem assays: 1829 (Project Summary), 1814 (Primary HTS)]; format: functional
[16] = Luminescence Cell-Based Dose Response HTS to Identify Activators of Luciferase Translation or Activity in H4 […] Cells. [Related pubchem assays: 1829 (Project Summary), 1814 (Primary HTS)]; format: functional
[17] = Luminescence Cell-Based Dose Response to Identify Activators of Luciferase Translation or Activity in H4-C Neuroglioblastoma Cells. [Related pubchem assays: 1829 (Project Summary), 1814 (Primary HTS)]; format: functional
H4 = experiment: Luminescence Cell-Based Dose Response HTS to Identify Activators of 5'UTR Stem-Loop Driven Prion Protein mRNA Translation in H4 Neuroglioblastoma Cells. [Related pubchem assays: 1829 (Project Summary), 1814 (Primary HTS)]; format: functional; settings: Homo sapiens
[18] = Luminescence Cell-Based Dose Response to Identify Activators of 5'UTR Stem-Loop Driven Prion Protein mRNA Translation in H4-C Neuroglioblastoma Cells. [Related pubchem assays: 1829 (Project Summary), 1814 (Primary HTS)]; format: functional
Cytochrome P450 3A4 = Cytochrome P450 3A4 (Homo sapiens, UniProt P08684);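 further: CYP3A4 tested as one member of a cytochrome P450 panel screen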
Chain of Cytochrome P450 3A4 (P08684 whole entry): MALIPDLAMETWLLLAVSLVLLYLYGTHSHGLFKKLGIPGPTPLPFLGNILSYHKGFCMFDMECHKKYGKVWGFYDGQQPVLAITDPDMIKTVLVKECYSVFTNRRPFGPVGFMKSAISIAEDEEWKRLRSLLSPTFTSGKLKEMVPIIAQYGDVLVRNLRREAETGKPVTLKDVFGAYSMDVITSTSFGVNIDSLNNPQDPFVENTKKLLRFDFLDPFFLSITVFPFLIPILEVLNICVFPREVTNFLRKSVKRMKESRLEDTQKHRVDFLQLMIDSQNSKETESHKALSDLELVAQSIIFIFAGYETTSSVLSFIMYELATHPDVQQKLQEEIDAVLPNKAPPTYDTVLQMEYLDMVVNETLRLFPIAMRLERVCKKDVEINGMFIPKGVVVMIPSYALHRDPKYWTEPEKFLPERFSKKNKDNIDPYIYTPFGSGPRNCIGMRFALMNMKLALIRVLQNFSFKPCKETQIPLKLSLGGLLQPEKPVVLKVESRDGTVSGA

Cytochrome P450 2C19 = Cytochrome P450 2C19 (Homo sapiens, UniProt P33261); experiment: Cytochrome panel assay with activity outcomes. Panel member name: p450-cyp2c19 Compounds with AC50 equal or less than 10 uM are considered active; format: functional; settings: read-out: AC50
Chain of Cytochrome P450 2C19 (P33261 whole entry): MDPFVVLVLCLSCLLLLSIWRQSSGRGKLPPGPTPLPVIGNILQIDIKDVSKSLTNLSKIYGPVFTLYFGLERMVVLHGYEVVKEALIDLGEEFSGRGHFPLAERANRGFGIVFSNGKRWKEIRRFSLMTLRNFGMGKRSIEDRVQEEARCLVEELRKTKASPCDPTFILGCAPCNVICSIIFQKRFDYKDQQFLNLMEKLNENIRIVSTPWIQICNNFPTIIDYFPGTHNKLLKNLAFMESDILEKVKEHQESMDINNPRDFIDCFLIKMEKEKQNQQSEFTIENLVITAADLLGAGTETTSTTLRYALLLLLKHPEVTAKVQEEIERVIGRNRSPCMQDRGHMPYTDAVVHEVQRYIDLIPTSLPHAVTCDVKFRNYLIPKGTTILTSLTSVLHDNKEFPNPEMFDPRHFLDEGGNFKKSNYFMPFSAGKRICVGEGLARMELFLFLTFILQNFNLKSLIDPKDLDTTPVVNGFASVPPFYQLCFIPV

[19] = Luminescence Cell-Based Dose Confirmation HTS to Identify Activators of 5'UTR Stem-Loop Driven Alpha-Synuclein mRNA Translation in H4 Neuroglioblastoma Cells. [Related pubchem assays: 1829 (Project Summary), 1814 (Primary HTS)]; format: functional
Cytochrome P450 2C9 = Cytochrome P450 2C9 (Homo sapiens, UniProt P11712)
Chain of Cytochrome P450 2C9 (P11712 whole entry): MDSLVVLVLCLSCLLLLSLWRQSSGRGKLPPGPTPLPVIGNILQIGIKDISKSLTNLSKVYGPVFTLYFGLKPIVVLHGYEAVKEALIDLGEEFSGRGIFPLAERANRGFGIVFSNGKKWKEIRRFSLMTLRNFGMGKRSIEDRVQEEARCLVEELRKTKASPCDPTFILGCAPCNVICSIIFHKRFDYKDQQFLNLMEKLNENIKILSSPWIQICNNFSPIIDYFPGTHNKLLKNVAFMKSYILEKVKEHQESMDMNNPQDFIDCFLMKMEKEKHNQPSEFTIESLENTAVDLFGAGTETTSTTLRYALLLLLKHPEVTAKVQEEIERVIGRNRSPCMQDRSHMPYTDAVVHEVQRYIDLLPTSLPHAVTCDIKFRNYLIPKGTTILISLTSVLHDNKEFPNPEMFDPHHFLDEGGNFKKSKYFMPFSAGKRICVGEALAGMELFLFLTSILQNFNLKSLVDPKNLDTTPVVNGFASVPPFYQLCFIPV

Cytochrome P450 2D6 [20] = target: T2, Cytochrome P450 2D6; remark: listed apart in the source
Vero [21] = experiment: cells; format: functional; settings: Chlorocebus sabaeus
Vero [22] = experiment: cells; format: functional, cell-based; settings: Chlorocebus sabaeus
[23] = Luminescence Cell-Based Dose Response HTS to Identify Inhibitors of 5'UTR Stem-Loop Driven Prion Protein mRNA Translation in H4 Neuroglioblastoma Cells. [Related pubchem assays: 1827 (Project Summary), 1813 (Primary HTS)]; format: functional
[24] = inhibitors of SNCA 5'UTR-driven reporter translation, confirmation, H4 neuroglioma cells, luminescence (AID 1988); format: functional, cell-based
[25] = inhibitors of firefly luciferase expression or activity, dose response, H4 neuroglioma cells, luminescence (AID 1990); format: functional, cell-based
A-375 [26] = experiment: A375 melanoma cell viability reduction, dose response, counter-screen for MITF modulator project, cherry-pick samples, set 2 (AID 540335); format: functional, cell-based; settings: Homo sapiens
A-375 [27] = experiment: MITF: Counter assay: A375 proliferation Measured in Cell-Based System Using Plate Reader - 2084-03_Inhibitor_Dose_DryPowder_Activity. [Related pubchem assays (depositor defined):AID488944]; format: functional; settings: Homo sapiens

## O=C(CSC(=S)N1CCCCC1)c1c(F)cccc1F
HEK293
  IC50: > 67.5 µM (inactive)
[1]
  IC50: > 67.5 µM (inactive)

## COc1cccc2c1C(=O)c1c(O)c3c(c(O)c1C2=O)C[C@@](O)(C(C)=O)C[C@@H]3O[C@H]1C[C@H](N)[C@H](O)[C@H](C)O1 [DAUNORUBICIN]
Cytochrome P450 2D6 [2]
  AC50: inactive
[3]
  IC50: 0.0464 µM (active)
[4]
  IC50: 0.0102 µM (active)
Cytochrome P450 1A2
  AC50: 31.6 µM (inconclusive)
[5]
  IC50: 1.47 µM (active)
[6]
  IC50: 0.338 µM (active)
[7]
  IC50: 0.0554 µM (active)
[8]
  IC50: 0.648 µM (active)
[9]
  IC50: 0.188 µM (active)
[10]
  IC50: 0.118 µM (active)
[11]
  IC50: 0.0509 µM (active)

## C/C(=N\OC(=O)c1cccc(C(F)(F)F)c1)c1sc(-c2ccccc2)nc1C
[12]
  CC50: 30.8 µM (active)
HeLa
  AC50: 174 µM (active)

## CC(C)c1nnc(N2C(=O)C(O)=C(C(=O)c3cccs3)C2c2ccccc2)s1 (centres undefined)
Keap1/Nrf2
  AC50: 13.4 µM (active)
[13]
  EC50: 33.9 µM (inconclusive)
[14]
  EC50: 4.38 µM (inconclusive)

## Cc1ccc(NC(=O)Nc2ccc3oc(C)nc3c2)cc1
[15]
  EC50: 0.216 µM (active)
[16]
  EC50: < 0.1 µM (active)
[17]
  EC50: 0.346 µM (active)
H4
  EC50: > 120 µM (not active)
HeLa
  AC50: 104 µM (active)
[18]
  EC50: 0.192 µM (active)

## S=C(Nc1ccc(Cl)cc1)NC1CC2CCCC(C1)N2C1CCCC1 (centres undefined)
Cytochrome P450 3A4
  AC50: inconclusive
Cytochrome P450 2C19
  AC50: 22.4 µM (inconclusive)

## COc1ccc(C(=O)C[n+]2ccc3ccccc3c2C)cc1
HEK293
  IC50: > 67.5 µM (inactive)
[1]
  IC50: > 67.5 µM (inactive)
[15]
  EC50: 0.375 µM (active)
[16]
  EC50: 0.235 µM (active)
[17]
  EC50: 0.402 µM (active)
H4
  EC50: > 120 µM (not active)
[19]
  EC50: < 0.1 µM (active)
[18]
  EC50: 0.646 µM (active)

## CCOC(=O)C1C(=O)C=C(/C=C/c2ccccc2)CC1c1ccc(Cl)cc1 (centres undefined)
Cytochrome P450 3A4
  AC50: inconclusive
Cytochrome P450 2C9
  AC50: 1.41 µM (inconclusive)
Cytochrome P450 2D6 [20]
  AC50: 7.08 µM (inconclusive)

## Cc1cc(C)c(-c2csc(NC(=O)/C=C/c3cccs3)n2)c(C)c1
Vero [21]
  CC50: > 25 µM (active)
Vero [22]
  IC50: 23.2 µM (active)
[23]
  EC50: 21.5 µM (active)
[24]
  EC50: 9.05 µM (active)
[25]
  EC50: > 120 µM (not active)

## CCOC(=O)c1ccc(NC(=O)CC2SCCNC2=O)cc1 (centres undefined)
A-375 [26]
  AC50: > 35 µM (active)
A-375 [27]
  AC50: > 35 µM (active)

## C#CCn1c(S(=O)(=O)Cc2ccc(C)cc2)nc(-c2ccccc2)c1-c1ccccc1
Vero [21]
  CC50: 22.6 µM (active)
Vero [22]
  IC50: 3.84 µM (active)

## CC(C)OC(=O)/C(=C\C=C\c1ccccc1)NC(=O)c1ccccc1
Cytochrome P450 2D6 [2]
  AC50: inconclusive
Cytochrome P450 1A2
  AC50: 3.55 µM (inconclusive)
Cytochrome P450 2C9
  AC50: 2.82 µM (inconclusive)
